{"source": "patent US8445190B2", "about": "“Method of inhibiting biomaterial-induced procoagulant activity using complement inhibitors” (The Trustees of the University of Pennsylvania, priority 2008, dated 2013)", "key": {"[1]": {"system": "CD11b on blood neutrophils", "test": "hemodialysis simulation with whole blood: flow cytometry of CD11b on blood neutrophils", "assay_type": "cell-based, human", "conditions": "in words; 40 uM in whole blood circuit; FIG. 7B", "text": "(§1) FIG. 7. Complement activation during hemodialysis simulation is reduced or prevented by a compstatin analog. […] A: ELISA detection of complement activation fragment C3b using a C3-9 mAB. B: Detection of cellular cascade activation by flow cytometry after surface staining of blood neutrophils for CD11b. C: Detection of coagulation cascade activation by flow cytometry after intracellular staining of blood neutrophils for tissue factor (TF).\n(§2) Whole blood was collected from healthy volunteers. […] All experiments were started within 30 min after blood collection.\n(§3) To minimize the blood volume needed, HPH Junior polysulfone dialyzers (Minntech Corporation) were used. Standard bloodline components served as tubing system (Arterial & venous blood lines, Set a/v for Fresenius 2008/4008, HMC Premedical S.p.A., Italy). […]\n(§4) To examine the activation of crucial pathways involved in the interaction of blood with the artificial surface of the dialyzer, complement, coagulation and neutrophil activation were analyzed. Briefly, complement activation was measured in plasma using a monoclonal antibody C3-9 (2 ug/ml), which recognizes a neoantigen that is exposed in C3(H2O), C3b and C3c but not in native C3. Neutrophil activation was assessed using flow cytometry after surface staining of CD11b (PE Mouse Anti-human CD11b/Mac-1, Cat. No 555388, BD Pharmigen). […]"}, "[2]": {"system": "tissue factor (TF) in blood neutrophils", "test": "hemodialysis simulation with whole blood: flow cytometry of intracellular tissue factor in blood neutrophils", "assay_type": "cell-based, human", "conditions": "in words; 40 uM in whole blood circuit; FIG. 7C", "text": "as §1, §2, §3, §4"}, "[3]": {"system": "complement activation (C3b)", "test": "hemodialysis simulation with whole blood: ELISA of C3 cleavage products (C3-9 mAb) in plasma", "assay_type": "biochemical, human", "conditions": "in words; 40 uM in whole blood circuit; FIG. 7A", "text": "as §1, §2, §3, §4"}, "[4]": {"system": "TF-dependent procoagulant activity of PMN culture supernatants", "test": "modified prothrombin time (mPT) of supernatants of healthy PMNs incubated with ESRD hemodialysis serum", "assay_type": "cell-based, human", "conditions": "for mPT values: FIG. 4A; for effect on procoagulant activity (mPT) induced by ESRD serum in PMN supernatants: in words, FIG. 1A / FIG. 4A", "text": "(§5) Complement and anaphylatoxin inhibition studies. I) Compstatin, a 13-residue cyclic peptide (Ac-I[CVWQDWGAHRTC]TNH2) that inhibits the cleavage of native C3 by the C3 convertase, was used as a specific inhibitor of complement activation at the C3 level. In certain studies, a compstatin analog (1-methyl tryptophan as the 4th residue) was used. […] II) SB-290152, a selective nonpeptide antagonist of the complement anaphylatoxin receptor C3aR, was used in this study to dissect the involvement of C3aR signalling in the generation of neutrophil derived TF [27]. III) To block C5aR stimulation on neutrophils, a small cyclic hexapeptide (AcF-[OPdChaWR]) that acts as a selective C5aR antagonist was used. Sera were pre-incubated for 30 min with Compstatin or its linear analogue (15 μM final concentration), before incubation with leukocytes. Furthermore, serum for stimulation was added to leukocytes that had been pre-incubated for 30 min with C3aRa or C5aRa (5-10 μM final concentration). Approximately […] washed cells from healthy donors were used for the subsequent incubations, The final volume was adjusted with PBS at 250 μl and the leukocytes were incubated for 90-120 min at 37° C.\nModified prothrombin time (mPT) assay to examine TF mediated coagulation activity in cell supernatants, complement inhibition and anaphylatoxin receptor studies. Since it has been shown previously that TF dependent procoagulant activity in leukocyte culture supernatants is altered after C5a/C5aR stimulation or blockade, the mPT method was used in order to estimate primarily the kinetics of TF induction. The presence of TF in supernatants is probably due to the presence of the soluble, spliced TF isoform or TF microparticles.\nAt the end of the incubation period, supernatants of cells were collected by centrifugation at 800 g for 10 min and were checked a second time to confirm the absence of cells and platelets. The coagulation activity properties (TF/FVIIa binding activity) of the cell supernatants were determined using a modified prothrombin time (mPT) assay. Briefly, after performing the “classic” PT test (100 μl platelet poor plasma [PPP] plus 200 μl thromboplastin ISI 1.7 (Instrumentation Laboratory, Milan, Italy), the modified PT analysis was carried out. Namely, 125 μl of cell supernatant and 75 μl thromboplastin were added to 100 μl of PPP to measure the changes of PT. As control of mPT, 125 μl of PBS was used instead of cell supernatant and the in vitro clotting time usually ranged from 31 to 34 sec.\nTo verify that the thromboplastic activity was due to TF alone, supernatants were incubated for 30 min with a specific neutralizing anti-TF monoclonal antibody (mAb, No 4509, American Diagnostica, Greenwich, Conn., USA), 10 μg/ml, at room temperature. PT was then measured by the mPT method. Non-specific controls involved incubation with the same subclass and concentration of mouse anti-human antibodies, as well as with different secondary antibodies.\nSerum of ESRD patients exerts procoagulant activity through TF induction and follows a time dependent manner during the hemodialysis course. […] The procoagulant activity of the above cell culture supernatants was measured using the mPT method."}, "[5]": {"system": "complement activation (C3b generation)", "test": "C3b generation ELISA in plasma incubated with hemodialysis filter fibers", "assay_type": "biochemical", "conditions": "in words; FIG. 5A; plasma with 15 mg fibers, over time, two concentrations", "experimental": "FIG. 5: Hemodialysis filter fibers induce in vitro TF dependent procoagulant properties in both ESRD and healthy serum through complement activation. […] C3b generation was detected by […]. CVF-activated plasma was used as a standard for 100% complement activation. The percentage of complement activation is depicted in the diagram. B: Serum from healthy donors was preincubated with hollow fibers from polysulfone hemodialysis filters at different time periods (10, 30, 60 & 120 min). PMNs were incubated with the pretreated serum and their supernatants were assayed for TF with mPT. A time-dependent procoagulant activity was observed (bar 2: 28.06±0.21, 3: 27.32±0.39, 4: 25.65±0.78, 5: 24.67±0.47, p<0.01 compared to bar 1: 31.81±0.28), which was blocked by the addition of anti-TF mAb in supernatants showing the highest procoagulant effect (bar 6: 31.49±0.12, p<0.05 compared to bar 5). C: Predialysis ESRD serum preincubated for 60 min with filter fibers, induced stronger procoagulant activity in PMN culture supernatants compared to when healthy serum was used (bars 3: 25.65±0.78, 6: 20.06±0.35, p<0.01 compared to bars 1: 33.12±0.25, 2: 29.07±0.33, respectively). […]"}, "[6]": {"system": "TF mRNA expression in PMNs", "test": "real time RT-PCR of TF mRNA in PMNs incubated with activated ESRD serum", "assay_type": "cell-based, human", "conditions": "FIG. 4B", "experimental": "4: Involvement of the complement pathway in the procoagulant properties of ESRD serum. […] In contrast, both a selective C3aR antagonist (10 μM-30 min) and a non-active linear analogue of compstatin had no effect on mPT values (bars 6, 7: 22.99±0.26 and 24.16±0.23, respectively; p: n.s. vs. bar 3).\nas §5\nRNA extraction, RT & relative quantitative real-time PCR analysis. […] In order to quantify the relative expression level of the two TF isoforms with coagulant properties [(full-length TF (referred to hereafter as ‘TF’) and alternative spliced TF (asTF)], isoform specific real-time PCR was performed. In each sample TF, asTF and GAPDH mRNA sequence-specific primers and probes for detection were applied. The 2^−DDCT method was used for quantification of the target gene expression."}, "[7]": {"system": "TF-dependent procoagulant activity of PMN culture supernatants", "test": "mPT of PMN supernatants after incubation with serum preincubated with polysulfone hemodialysis filter fibers", "assay_type": "cell-based, human", "conditions": "for mPT: FIG. 5C", "experimental": "FIG. 5: Hemodialysis filter fibers induce in vitro TF dependent procoagulant properties in both ESRD and healthy serum through complement activation. […] C3b generation was detected by […]. CVF-activated plasma was used as a standard for 100% complement activation. The percentage of complement activation is depicted in the diagram. B: Serum from healthy donors was preincubated with hollow fibers from polysulfone hemodialysis filters at different time periods (10, 30, 60 & 120 min). PMNs were incubated with the pretreated serum and their supernatants were assayed for TF with mPT. A time-dependent procoagulant activity was observed (bar 2: 28.06±0.21, 3: 27.32±0.39, 4: 25.65±0.78, 5: 24.67±0.47, p<0.01 compared to bar 1: 31.81±0.28), which was blocked by the addition of anti-TF mAb in supernatants showing the highest procoagulant effect (bar 6: 31.49±0.12, p<0.05 compared to bar 5). C: Predialysis ESRD serum preincubated for 60 min with filter fibers, induced stronger procoagulant activity in PMN culture supernatants compared to when healthy serum was used (bars 3: 25.65±0.78, 6: 20.06±0.35, p<0.01 compared to bars 1: 33.12±0.25, 2: 29.07±0.33, respectively). Inhibitions with compstatin or C5aR antagonist, in both pre-treated sera, elucidated that the observed TF-dependent procoagulant activity was complement mediated (bars 4: 29.60±0.57, 5: 29.15±0.49 & 7: 26.85±0.21, 8: 26.05±0.35, p<0.01 compared to bars 3 and 6, respectively).\nComplement and anaphylatoxin inhibition studies. I) Compstatin, a 13-residue cyclic peptide (Ac-I[CVWQDWGAHRTC]TNH2) that inhibits the cleavage of native C3 by the C3 convertase, was used as a specific inhibitor of complement activation at the C3 level. […]\nAt the end of the incubation period, supernatants of cells were collected by centrifugation at 800 g for 10 min and were checked a second time to confirm the absence of cells and platelets. The coagulation activity properties (TF/FVIIa binding activity) of the cell supernatants were determined using a modified prothrombin time (mPT) assay. […]"}, "[8]": {"conditions": "PMNs preincubated with receptor antagonist (10 μM-30 min), then ESRD serum of 15 to 30 min of hemodialysis, no antagonist bar 3: 22.96±0.22, control bar 1: 31.96±0.21"}}, "note": "Where no end group is shown, it is not given here.", "data": [{"compound": "I[CV^(1−Me)WQDWGAHRC]I—NH2 [compstatin analog 4[1MeW]]", "values": [{"measurement": "effect on cellular activation (CD11b surface staining of neutrophils)", "setting": "[1]", "value": "attenuated"}, {"measurement": "effect on coagulation cascade activation (intracellular TF in neutrophils)", "setting": "[2]", "value": "attenuated"}, {"measurement": "effect on time-dependent complement activation (C3 cleavage products in plasma)", "setting": "[3]", "value": "abrogated this activation"}]}, {"compound": "IAVWQDWGAHRTAT-NH2 [non-active linear analogue of compstatin, reference compound]", "values": [{"measurement": "mPT values", "setting": "[4]; ESRD serum taken at 15 to 30 min of hemodialysis treated with peptide (15 μM-30 min), healthy donor's PMNs (N=6), untreated serum bar 3: 22.96±0.22, control bar 1: 31.96±0.21", "value": "24.16±0.23"}, {"measurement": "inhibition of complement activation induced by hemodialysis biomaterials (C3b generation)", "setting": "[5]", "value": "not inhibited"}]}, {"compound": "Acetyl-Phe-[Orn-Pro-D-cyclohexylalanine-Trp-Arg] (FXPXWR; non-natural residues; cyclised or stapled) [C5aR antagonist]", "values": [{"measurement": "average DCt of TF mRNA", "setting": "[6]; PMNs incubated with activated serum bar 1: 7.92±0.29", "value": "9.02±0.62"}, {"measurement": "fold decrease of TF mRNA expression", "setting": "[6]; vs. PMNs incubated with activated serum (bar 1)", "value": 2.14, "unit": "fold"}, {"measurement": "effect on TF expression in PMNs (2^−DDCT analysis)", "setting": "[6]; in words", "value": "inhibited the stimulation effect"}, {"measurement": "mPT", "setting": "[7]; healthy serum preincubated 60 min with filter fibers, without inhibitor bar 3: 25.65±0.78", "value": "29.15±0.49"}, {"measurement": "mPT", "setting": "[7]; predialysis ESRD serum preincubated 60 min with filter fibers, without inhibitor bar 6: 20.06±0.35", "value": "26.05±0.35"}, {"measurement": "mPT values", "setting": "[4]; [8]", "value": "31.65±0.28"}, {"measurement": "effect on procoagulant activity (mPT) induced by ESRD serum in PMN supernatants", "setting": "[4]", "value": "abrogated the observed procoagulant activity"}]}, {"compound": "NC(N)=NCCC[C@H](NC(=O)COCC(c1ccccc1)c1ccccc1)C(=O)O", "note": "[C3aR antagonist, SB-290152]", "values": [{"measurement": "effect on procoagulant activity induced by filter-fiber treated serum in neutrophil supernatants", "setting": "[7]; in words, FIG. 5B/5C", "value": "no effect on the procoagulant activity"}, {"measurement": "mPT values", "setting": "[4]; [8]", "value": "22.99±0.26"}, {"measurement": "effect on procoagulant activity (mPT) induced by ESRD serum in PMN supernatants", "setting": "[4]", "value": "did not affect the mPT values"}]}]}
